Experimental data taken from US10131642B1, “Aldosterone synthase inhibitors” (Boehringer Ingelheim International GmbH, priority 2015, dated 2018).

Tests used:
[1] = molecular target: T1, aldosterone synthase (CYP11B2) (Macaca fascicularis, UniProt A0A2K5UPL9); assay: Inhibition of aldosterone synthase (cynomolgus adrenal mitochondria, aldosterone by mass spectrometry); format: biochemical, cynomolgus monkey; details: cynomolgus adrenal gland mitochondria, 2 μM corticosterone substrate, 90 minutes at 37° C.
T1 construct: cynomolgus adrenal gland mitochondria as the source of aldosterone synthase (CYP11B2); from tissue; host or cells: cynomolgus monkey adrenal gland mitochondria
T1 sequence (A0A2K5UPL9 1-503): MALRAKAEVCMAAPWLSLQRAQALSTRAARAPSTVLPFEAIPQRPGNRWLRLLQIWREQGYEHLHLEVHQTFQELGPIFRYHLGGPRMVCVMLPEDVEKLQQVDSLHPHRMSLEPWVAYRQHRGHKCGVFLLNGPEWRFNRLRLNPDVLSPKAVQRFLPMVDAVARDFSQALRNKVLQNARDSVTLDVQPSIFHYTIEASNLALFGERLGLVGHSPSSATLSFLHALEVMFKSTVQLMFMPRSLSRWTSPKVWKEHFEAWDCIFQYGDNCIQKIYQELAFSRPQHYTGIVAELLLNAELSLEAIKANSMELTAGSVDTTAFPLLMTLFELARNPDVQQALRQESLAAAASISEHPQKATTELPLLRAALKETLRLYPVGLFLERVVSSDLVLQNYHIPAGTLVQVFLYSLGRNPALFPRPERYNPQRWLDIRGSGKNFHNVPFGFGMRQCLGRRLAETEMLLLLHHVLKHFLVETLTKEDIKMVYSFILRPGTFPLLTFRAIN
Description: (§1) The aldosterone synthase and cortisol synthase inhibition assays employ cynomolgus adrenal gland mitochondria as the source of aldosterone synthase (CYP11B2) and cortisol synthase (CYP11B1). Mitochondria are prepared from frozen cynomolgus monkey adrenal glands according to Method A described in by J. D. McGarry et al. (Biochem. J., 1983, 214, 21-28), with a final resuspension in the AT buffer described in R. Yamaguchi et al. (Cell Death and Differentiation, 2007, 14, 616-624), frozen as aliquots in liquid nitrogen and stored at −80° C. until use. Activity of CYP11B2 and CYP11B1 in these preparations is defined as the amount of enzyme that generates 1 pmol of product in one hour under the conditions described.
Assays are performed in 96-well format in a final volume of 60 µL/well, containing 100 mM potassium phosphate, pH 7.4, 1% (v/v) DMSO, and additionally, 2 μM of corticosterone and 50 units of CYP11B2 activity. Reactions are started by the addition of NADPH to 1 mM and allowed to proceed for 90 minutes at 37° C. Reactions are terminated by the addition of 60 μL of MeCN containing an internal standard for mass spectrometry. One hundred microliters are then transferred to a glass filter plate and centrifuged at 570×g for 5 minutes and the filtrate is collected. Reaction product aldosterone is quantified by mass spectrometry. To determine the assay blank value (0% activity), NADPH is omitted from some reactions.
Dose dependent inhibition is quantified by the inclusion of compound at various concentrations. Maximum activity (100%) is defined by reactions containing NADPH, but without compound. Activities at each concentration are expressed as a percentage of the maximum activity (y-axis) and plotted against concentration of compound (x-axis) and the concentration corresponding to 50% activity (IC50) determined using the XLFit curve-fitting program using a 4-parameter logistic model.

[2] = molecular target: cortisol synthase (CYP11B1) (Macaca fascicularis, UniProt A0A2K5ULY1); assay: Inhibition of cortisol synthesis (cynomolgus adrenal mitochondria, cortisol by mass spectrometry); format: biochemical, cynomolgus monkey; details: cynomolgus adrenal gland mitochondria, 11-deoxycortisol as substrate, cortisol measured as product; read-out: CYP11B1 Inhibition IC50
Description: as §1, with “described. Dose dependent inhibition is quantified by the inclusion of compound at various concentrations. Maximum activity (100%) is defined by reactions containing NADPH, but without compound. Activities at each concentration are expressed as a percentage of the maximum activity (y-axis) and plotted against concentration of compound (x-axis) and the concentration corresponding to 50% activity (IC50) determined using the XLFit curve-fitting program using a 4-parameter logistic model. Assays are performed as for aldosterone synthase except for the use of 150 units of CYP11B1, 11-deoxycortisol as substrate and cortisol measured as product.” for “described.”

IC50 [1] | IC50 [2] | Structure (SMILES)
80 nM | 2600 nM | O=C1CC(Cc2ccccc2)Cc2noc(Cc3ccc(C(=O)N4CC[C@@H](O)C4)cc3)c21 (stereo partly drawn) [Cpd 57, 6-Benzyl-3-[4-((R)-3-hydroxy-pyrrolidine-l-carbonyl)-benzyl]-6,7-dihydro-5H-benzo[c]isoxazol-4-one]
89 nM | 3400 nM | COCCNC(=O)c1ccc(Cc2onc3c2C(=O)CC(C)(C)C3)cc1 [Cpd 58, 4-(6,6-Dimethyl-4-oxo-4,5,6,7-tetrahydro-benzo[c]isoxazol-3-ylmethyl)-N-(2-methoxy-ethyl)-benzamide]
92 nM | 11000 nM | CN(CCO)C(=O)c1ccc(Cc2onc3c2C(=O)CC(C)(C)C3)cc1 [Cpd 59, 4-(6,6-Dimethyl-4-oxo-4,5,6,7-tetrahydro-benzo[c]isoxazol-3-ylmethyl)-N-(2-hydroxy-ethyl)-N-methyl-benzamide]
94 nM | 5900 nM | CC1(C)CC(=O)c2c(noc2Cc2ccc(C(=O)N3CCC[C@H](O)C3)cc2)C1 [Cpd 60, 3-[4-((S)-3-Hydroxy-piperidine-1-carbonyl)-benzyl]-6,6-dimethyl-6,7-dihydro-5H-benzo[c]isoxazol-4-one]
91 nM | 7400 nM | CC1(C)CC(=O)c2c(noc2Cc2ccc(C(=O)NCCS(C)(=O)=O)cc2)C1 [Cpd 61, 4-(6,6-Dimethyl-4-oxo-4,5,6,7-tetrahydro-benzo[c]isoxazol-3-ylmethyl)-N-(2-methanesulfonyl-ethyl)-benzamide]
98 nM | 20000 nM | CC1(C)CC(=O)c2c(noc2Cc2ccc(C(=O)N3CCNC(=O)C3)cc2)C1 [Cpd 62, 6,6-Dimethyl-3-[4-(3-oxo-piperazine-1-carbonyl)-benzyl]-6,7-dihydro-5H-benzo[c]isoxazol-4-one]
110 nM | 4100 nM | O=C1CC(CC2CC2)Cc2noc(Cc3ccc(C(=O)N4CC[C@@H](O)C4)cc3)c21 (stereo partly drawn) [Cpd 63, 6-Cyclopropylmethyl-3-[4-((R)-3-hydroxy-pyrrolidine-1-carbonyl)-benzyl]-6,7-dihydro-5H-benzo[c]isoxazol-4-one]
110 nM | 9300 nM | CN(CCS(C)(=O)=O)C(=O)c1ccc(Cc2onc3c2C(=O)CC(C)(C)C3)cc1 [Cpd 64, 4-(6,6-Dimethyl-4-oxo-4,5,6,7-tetrahydro-benzo[c]isoxazol-3-ylmethyl)-N-(2-methanesulfonyl-ethyl)-N-methyl-benzamide]
110 nM | 7600 nM | CC1(C)CC(=O)c2c(noc2Cc2ccc(C(=O)N3CC[C@H](O)C3)cc2)C1 [Cpd 65, 3-[4-((S)-3-Hydroxy-pyrrolidine-1-carbonyl)-benzyl]-6,6-dimethyl-6,7-dihydro-5H-benzo[c]isoxazol-4-one]
120 nM | 5000 nM | CC1CC(=O)c2c(noc2Cc2ccc(C(=O)N3CCN(C)C(=O)C3)cc2)C1 (stereo not drawn) [Cpd 66, 6-Methyl-3-[4-(4-methyl-3-oxo-piperazine-l-carbonyl)-benzyl]-6,7-dihydro-5H-benzo[c]isoxazol-4-one]
120 nM | 7300 nM | CC(C)N(CCO)C(=O)c1ccc(Cc2onc3c2C(=O)CC(C)(C)C3)cc1 [Cpd 67, 4-(6,6-Dimethyl-4-oxo-4,5,6,7-tetrahydro-benzo[c]isoxazol-3-ylmethyl)-N-(2-hydroxy-ethyl)-N-isopropyl-benzamide]
160 nM | 7800 nM | CC1(C)CC(=O)c2c(noc2Cc2ccc(C(=O)NCCC#N)cc2)C1 [Cpd 68, N-(2-Cyano-ethyl)-4-(6,6-dimethyl-4-oxo-4,5,6,7-tetrahydro-benzo[c]isoxazol-3-ylmethyl)-benzamide]
160 nM | 13000 nM | CC1(C)CC(=O)c2c(noc2Cc2ccc(C(=O)NCC3(O)CC3)cc2)C1 [Cpd 69, 4-(6,6-Dimethyl-4-oxo-4,5,6,7-tetrahydro-benzo[c]isoxazol-3-ylmethyl)-N-(1-hydroxy-cyclopropylmethyl)-benzamide]
160 nM | 11000 nM | CC1(C)CC(=O)c2c(noc2Cc2ccc(C(=O)NCC3(CO)CCCC3)cc2)C1 [Cpd 70, 4-(6,6-Dimethyl-4-oxo-4,5,6,7-tetrahydro-benzo[c]isoxazol-3-ylmethyl)-N-(1-hydroxymethyl-cyclopentylmethyl)-benzamide]
170 nM | 20000 nM | C[C@H](O)CNC(=O)c1ccc(Cc2onc3c2C(=O)CC(C)(C)C3)cc1 [Cpd 71, 4-(6,6-Dimethyl-4-oxo-4,5,6,7-tetrahydro-benzo[c]isoxazol-3-ylmethyl)-N-((S)-2-hydroxy-propyl)-benzamide]
180 nM | 5900 nM | CC1(C)CC(=O)c2c(noc2Cc2ccc(C(=O)N3CCC[C@@H](O)C3)cc2)C1 [Cpd 72, 3-[4-((R)-3-Hydroxy-piperidine-1-carbonyl)-benzyl]-6,6-dimethyl-6,7-dihydro-5H-benzo[c]isoxazol-4-one]
230 nM | 23000 nM | C[C@@H](O)CNC(=O)c1ccc(Cc2onc3c2C(=O)CC(C)(C)C3)cc1 [Cpd 73, 4-(6,6-Dimethyl-4-oxo-4,5,6,7-tetrahydro-benzo[c]isoxazol-3-ylmethyl)-N-((R)-2-hydroxy-propyl)-benzamide]
82 nM | 3000 nM | CC1CC(=O)c2c(noc2Cc2ccc(C(N)=O)cc2)C1 (centres unmarked) [Cpd 74, 4-(6-Methyl-4-oxo-4,5,6,7-tetrahydro-benzo[c]isoxazol-3-ylmethyl)-benzamide]
100 nM | 15000 nM | CC1(C)CC(=O)c2c(noc2Cc2ccc(C(N)=O)cc2)C1 [Cpd 75, 4-(6,6-Dimethyl-4-oxo-4,5,6,7-tetrahydro-benzo[c]isoxazol-3-ylmethyl)-benzamide]
25 nM | 530 nM | CC(C)C1CC(=O)c2c(noc2Cc2ccc(C(N)=O)cc2)C1 (centres unmarked) [Cpd 76, 4-(6-Isopropyl-4-oxo-4,5,6,7-tetrahydro-benzo[c]isoxazol-3-ylmethyl)-benzamide]
12 nM | 130 nM | NC(=O)c1ccc(Cc2onc3c2C(=O)CC2(CCC2)C3)cc1 [Cpd 77, 4-(-6,6-spiro-cyclobutyl-4-oxo-4,5,6,7-tetrahydro-benzo[c]isoxazol-3-ylmethyl)-benzamide]
24 nM | 3300 nM | CC1(C)CC(=O)c2c(noc2Cc2ccc(OCCCC(N)=O)cc2)C1 [Cpd 78]
23 nM | 7800 nM | CN(C)C(=O)CCCOc1ccc(Cc2onc3c2C(=O)CC(C)(C)C3)cc1 [Cpd 79]
29 nM | 1800 nM | CNC(=O)CCOc1ccc(Cc2onc3c2C(=O)CC(C)(C)C3)cc1 [Cpd 80, 3-[4-(6,6-Dimethyl-4-oxo-4,5,6,7-tetrahydro-benzo[c]isoxazol-3-ylmethyl)-phenoxy]-N-methyl-propionamide]
35 nM | 2500 nM | CC1(C)CC(=O)c2c(noc2Cc2ccc(OCCC(N)=O)cc2)C1 [Cpd 81, 3-[4-(6,6-Dimethyl-4-oxo-4,5,6,7-tetrahydro-benzo[c]isoxazol-3-ylmethyl)-phenoxy]-propionamide]
